Experimental data taken from US10772886B2, “CXCR-2 inhibitors for treating crystal arthropathy disorders” (ARDEA BIOSCIENCES, INC., priority 2016, dated 2020).

Assays:
[1] = system: rat air pouch model of crystal-induced arthropathy (MSU); experiment: Rat air pouch therapeutic model, Example 10 (Compounds 3 and 4 in combination with colchicine); type: in vivo
Method: Sodium hydroxide (40 g, Fisher Scientific) was dissolved in de-ionized water (100 mL, dH2O) to provide a 10N solution. Uric acid (16 g, Sigma) was added to de-ionized water (3400 mL) containing sodium hydroxide solution (11.8 mL, 10N) and heated to 60° C. with constant stirring. […] The resulting clear solution was cooled to 4-8° C., resulting in the formation of crystals, which were isolated by filtration, washed three times with de-ionized wa[…]) and dried at 37° C. The dried mono sodium urate crystals were sifted into an air-tight container for storage. […] Methylcellulose (0.4 g, Sigma) was dissolved in de-ionized water (100 mL) to provide a 0.4% solution used as vehicle. […] Test compounds were suspended in vehicle to provide the desired concentrations, and diluted accordingly. […] The animals were in apparent good health with no clinical signs of disease or distress. The rats were placed in quarantine with daily inspections, ear notched for identification purposes and shaved at the nape of the neck. The rats were anesthetized (isoflurane), and the nape of the neck was cleansed with 70% isopropanol (Butler Animal Health Supply) followed by povidone-iodine solution (Ricca Chemical Co.). Sterile air (30 mL, 0.2 μm, Millipore) was injected subcutaneously using a 23 G×11⁄2 inch needle fixed to a 30 mL syringe. The rats were returned to routine housing with no adverse reactions observed. The rats were anesthetized (isoflurane), and the nape of the neck was cleansed with 70% isopropanol (Butler Animal Health Supply) followed by povidone-iodine solution (Ricca Chemical Co.). Sterile air (15 mL, 0.11 μm, Millipore) was injected subcutaneously using a 23 G×11⁄2 inch needle fixed to a 20 mL syringe. The rats were returned to routine housing with no adverse reactions observed. The rats were weighed and sorted into treatment groups based on average body weight. As appropriate, the rats were dosed orally with test compound or vehicle (saline alone). […] Control group was injected with 15 mL sterile saline (vehicle). The injection sites were closed (collodion, Macron) and the rats returned to their cages with no adverse effects observed. Four hours after MSU/saline injection, the rats were anesthetized and heparinized saline (5 mL, 10 U/mL) was injected into the air pouch. […] An aliquot of the exudate was transferred to green Eppendorf tubes for total white blood cell (WBC) measurement. After allowing the MSU crystals to settle out for ten minutes, an aliquot of the exudate was transferred to heparinized microtainer tubes (Becton Dickinson) for differential white blood cell counts. The remainder of the exudate was centrifuged and an aliquot of the supernatants was dispensed to labeled clear Eppendorf tubes and stored at -80° C. The rats were exsanguinated into pre-chilled serum separator tubes, processed to serum, and 0.5 mL aliquot was stored at -80° C. in labeled Eppendorf tubes. […] 140 rats were used, divided into 14 groups of 10 animals, as follows: [table]

[2] = system: rat air pouch model of crystal-induced arthropathy (MSU); experiment: Rat air pouch model, Example 6 (Compounds 2, 3 and 4); type: in vivo
Method: Sodium hydroxide (40 g, Fisher Scientific) was dissolved in de-ionized water (100 mL, dH2O) to provide a 10N solution. Uric acid (16 g, Sigma) was added to de-ionized water (3400 mL) containing sodium hydroxide solution (11.8 mL, 10N) and heated to 60° C. with constant stirring. […] The resulting clear solution was cooled to 4-8° C., resulting in the formation of crystals, which were isolated by filtration, washed three times with de-ionized wa[…]) and dried at 37° C. The dried mono sodium urate crystals were sifted into an air-tight container for storage. […] Methylcellulose (0.4 g, Sigma) was dissolved in de-ionized water (100 mL) to provide a 0.4% solution used as vehicle. […] Test compounds were suspended in vehicle to provide the desired concentrations, and diluted accordingly. […] Male Sprague-Dawley rats (Charles River Laboratories, 160-180 g) were received, individually examined and housed in cages of five rats each. The animals were in apparent good health with no clinical signs of disease or distress. The rats were placed in quarantine with daily inspections, ear notched for identification purposes and shaved at the nape of the neck. The rats were anesthetized (isoflurane), and the nape of the neck was cleansed with 70% isopropanol (Butler Animal Health Supply) followed by povidone-iodine solution (Ricca Chemical Co.). Sterile air (30 mL, 0.2 μm, Millipore) was injected subcutaneously using a 23 G×11⁄2 inch needle fixed to a 30 mL syringe. The rats were returned to routine housing with no adverse reactions observed. The rats were anesthetized (isoflurane), and the nape of the neck was cleansed with 70% isopropanol (Butler Animal Health Supply) followed by povidone-iodine solution (Ricca Chemical Co.). Sterile air (15 mL, 0.11 μm, Millipore) was injected subcutaneously using a 23 G×11⁄2 inch needle fixed to a 20 mL syringe. The rats were returned to routine housing with no adverse reactions observed. The rats were weighed and sorted into treatment groups based on average body weight. As appropriate, the rats were dosed orally with test compound or vehicle (saline alone). […] Thirty minutes after SC injection or two hours after PO dosing, MSU (15 mL) was injected into the air pouch using an 18 G×2 inch needle fitted to a 20 mL syringe. Control group was injected with 15 mL sterile saline (vehicle). The injection sites were closed (collodion, Macron) and the rats returned to their cages with no adverse effects observed. Four hours after MSU/saline injection, the rats were anesthetized and heparinized saline (5 mL, 10 U/mL) was injected into the air pouch. […] An aliquot of the exudate was transferred to green Eppendorf tubes for total white blood cell (WBC) measurement. After allowing the MSU crystals to settle out for ten minutes, an aliquot of the exudate was transferred to heparinized microtainer tubes (Becton Dickinson) for differential white blood cell counts. The remainder of the exudate was centrifuged and an aliquot of the supernatants was dispensed to labeled clear Eppendorf tubes and stored at -80° C. The rats were exsanguinated into pre-chilled serum separator tubes, processed to serum, and 0.5 mL aliquot was stored at -80° C. in labeled Eppendorf tubes. […] [table]

[3] = 10 μmol/kg PO + Colchicine 0.3 mg/kg SC, Groups 9, 14

SMILES: COc1cc2c(c(OC)c1OC)-c1ccc(OC)c(=O)cc1[C@@H](NC(C)=O)CC2 [Colchicine, COLCHICINE, reference compound]
- Avg Exudate Vol ([1]; 0.3 mpk SC, Group 3): 11.7 mL
- Avg Tot WBC ([1]; 0.3 mpk SC, Group 3): 180 ×10^6
- Neutrophils ([1]; 0.3 mpk SC, Group 3): 71.5 ×10^6
- Avg Exudate Vol ([1]; 0.5 mpk SC, Group 4): 8.9 mL
- Avg Tot WBC ([1]; 0.5 mpk SC, Group 4): 35 ×10^6
- Neutrophils ([1]; 0.5 mpk SC, Group 4): 70.7 ×10^6
- Avg Exudate Vol ([1]; 1.0 mpk SC, Group 5): 7.3 mL
- Avg Tot WBC ([1]; 1.0 mpk SC, Group 5): 9.8 ×10^6
- Neutrophils ([1]; 1.0 mpk SC, Group 5): 25.9 ×10^6
- Avg Exudate Vol ([2]; 1 mpk SC, Group 4): 5.8 mL
- Avg Total WBC ([2]; 1 mpk SC, Group 4): 17 ×10^6
- Neutrophils ([2]; 1 mpk SC, Group 4): 9.9 ×10^6

SMILES: CC[C@@H](Nc1c(Nc2cccc(C(=O)N(C)C)c2O)c(=O)c1=O)c1ccc(C)o1 [Compound 2, (R)-2-hydroxy-N,N-dimethyl-3-((2-((1-(5-methylfuran-2-yl)propyl)amino)-3,4-dioxocyclobut-1-en-1-yl)amino)benzamide]
- Avg Exudate Vol ([2]; 3 mpk PO, Group 3): 8.4 mL
- Avg Total WBC ([2]; 3 mpk PO, Group 3): 22 ×10^6
- Neutrophils ([2]; 3 mpk PO, Group 3): 11.8 ×10^6

SMILES: C[C@@H](Oc1cc(NS(=O)(=O)N2CCC2)nc(SCc2cccc(F)c2F)n1)[C@@H](O)CO [Compound 3, N-(2-((2,3-difluorobenzyl)thio)-6-(((2R,3S)-3,4-dihydroxybutan-2-yl)oxy)pyrimidin-4-yl)azetidine-1-sulfonamide]
- Avg Exudate Vol ([1]; 3 μmol/kg PO, Group 10): 11.5 mL
- Avg Tot WBC ([1]; 3 μmol/kg PO, Group 10): 120 ×10^6
- Neutrophils ([1]; 3 μmol/kg PO, Group 10): 71.1 ×10^6
- Avg Exudate Vol [1, 3]: 9.5 mL
- Avg Tot WBC [1, 3]: 68 ×10^6
- Neutrophils [1, 3]: 72.6 ×10^6
- Avg Exudate Vol ([1]; 10 μmol/kg PO, Groups 6, 11): 10.0 mL
- Avg Tot WBC ([1]; 10 μmol/kg PO, Groups 6, 11): 84 ×10^6
- Neutrophils ([1]; 10 μmol/kg PO, Groups 6, 11): 69.2 ×10^6
- Avg Exudate Vol ([1]; 30 μmol/kg PO, Groups 7, 12): 8.8 mL
- Avg Tot WBC ([1]; 30 μmol/kg PO, Groups 7, 12): 59 ×10^6
- Neutrophils ([1]; 30 μmol/kg PO, Groups 7, 12): 30.7 ×10^6
- Avg Exudate Vol ([1]; 100 μmol/kg PO, Groups 8, 13): 6.9 mL
- Avg Tot WBC ([1]; 100 μmol/kg PO, Groups 8, 13): 40 ×10^6
- Neutrophils ([1]; 100 μmol/kg PO, Groups 8, 13): 35.1 ×10^6
- Avg Exudate Vol ([2]; 0.3 umol/kg PO, Group 5): 10.7 mL
- Avg Total WBC ([2]; 0.3 umol/kg PO, Group 5): 180 ×10^6
- Neutrophils ([2]; 0.3 umol/kg PO, Group 5): 155 ×10^6
- Avg Exudate Vol ([2]; 3.0 umol/kg PO, Group 6): 10 mL
- Avg Total WBC ([2]; 3.0 umol/kg PO, Group 6): 190 ×10^6
- Neutrophils ([2]; 3.0 umol/kg PO, Group 6): 121 ×10^6
- Avg Exudate Vol ([2]; 30 umol/kg PO, Groups 7, 9): 7 mL
- Avg Total WBC ([2]; 30 umol/kg PO, Groups 7, 9): 96 ×10^6
- Neutrophils ([2]; 30 umol/kg PO, Groups 7, 9): 44.6 ×10^6

SMILES: CC1CN(S(=O)(=O)Nc2cc(O[C@H](C)[C@@H](O)CO)nc(SCc3ccc(F)cc3)n2)C1 [Compound 4, N-(6-(((2R,3S)-3,4-dihydroxybutan-2-yl)oxy)-2-((4-fluorobenzyl)thio)pyrimidin-4-yl)-3-methylazetidine-1-sulfonamide]
- Avg Exudate Vol [1, 3]: 7.6 mL
- Avg Tot WBC [1, 3]: 46 ×10^6
- Neutrophils [1, 3]: 61.5 ×10^6
- Avg Exudate Vol ([1]; 10 μmol/kg PO, Groups 6, 11): 11.5 mL
- Avg Tot WBC ([1]; 10 μmol/kg PO, Groups 6, 11): 130 ×10^6
- Neutrophils ([1]; 10 μmol/kg PO, Groups 6, 11): 68.4 ×10^6
- Avg Exudate Vol ([1]; 30 μmol/kg PO, Groups 7, 12): 8.2 mL
- Avg Tot WBC ([1]; 30 μmol/kg PO, Groups 7, 12): 25 ×10^6
- Neutrophils ([1]; 30 μmol/kg PO, Groups 7, 12): 60.4 ×10^6
- Avg Exudate Vol ([1]; 100 μmol/kg PO, Groups 8, 13): 7.0 mL
- Avg Tot WBC ([1]; 100 μmol/kg PO, Groups 8, 13): 18 ×10^6
- Neutrophils ([1]; 100 μmol/kg PO, Groups 8, 13): 26.2 ×10^6
- Avg Exudate Vol ([2]; 1.0 umol/kg PO, Group 8): 10 mL
- Avg Total WBC ([2]; 1.0 umol/kg PO, Group 8): 270 ×10^6
- Neutrophils ([2]; 1.0 umol/kg PO, Group 8): 165 ×10^6
- Avg Exudate Vol ([2]; 30 umol/kg PO, Groups 7, 9): 7 mL
- Avg Total WBC ([2]; 30 umol/kg PO, Groups 7, 9): 140 ×10^6
- Neutrophils ([2]; 30 umol/kg PO, Groups 7, 9): 95.4 ×10^6
- Avg Exudate Vol ([2]; 100 umol/kg PO, Group 10): 6.5 mL
- Avg Total WBC ([2]; 100 umol/kg PO, Group 10): 76 ×10^6
- Neutrophils ([2]; 100 umol/kg PO, Group 10): 48.6 ×10^6
